This is an account of results in ChEMBL document CHEMBL5579901, “Discovery of Novel [1,2,4]Triazolo[1,5-a]pyrimidine Derivatives as Novel Potent S-Phase Kinase-Associated Protein 2 (SKP2) Inhibitors for the Treatment of Cancer” (J Med Chem, 2024).

Calls of active or inactive are those of the source. No cut-off for these calls is given here.

The target in data set [1] is Cyclin-dependent kinases regulatory subunit 1/S-phase kinase-associated protein 2 (Homo sapiens) (UniProt P61024+Q13309). In words: Inhibition of GST-tagged SKP2 (unknown origin) binding to His6-tagged CKS1 (unknown origin) at 50 uM preincubated with SKP2 for 10 mins followed by CKS1 addition for 20 mins and measured after by HTRF method relative to control. The following applies: time 30.0 min. The data set is classed as protein assay.

Data set [2] deals with MGC-803. In words: Upregulation of p21 protein expression in human MGC-803 cells at 15 uM by Western blotting analysis. The settings on record: time 6-48 hrs, TDE = time-dependent effect. It counts as functional, cell-based.
For data set [3], the system named is PC-3. In words: Induction of cell cycle arrest in human PC-3 cells assessed as cells at G2/M phase at 15 uM incubated for 6 hrs by PI staining based flow cytometry (reference value: 21.4%). It counts as functional.
Data set [4] has as its target Cyclin-dependent kinases regulatory subunit 1/S-phase kinase-associated protein 2 (Homo sapiens, UniProt Q13309). In words: Inhibition of GST-tagged SKP2 (unknown origin) binding to His6-tagged CKS1 (unknown origin) preincubated with SKP2 for 10 mins followed by CKS1 addition for 20 mins and measured after by HTRF method. The data set is classed as protein assay.
A short description of data set [5]: Clearance in Sprague-Dawley rat at 1 mg/kg, iv measured upto 24 hrs by LC/MS-MS analysis. The settings on record: in vivo. The data set is classed as ADME, organism-based.
Data set [6] concerns PC-3. In words: Induction of cell cycle arrest in human PC-3 cells assessed as cells at G0/G1 phase at 15 uM incubated for 36 hrs by PI staining based flow cytometry (reference value: 54.5%). The data set is classed as functional.
The subject of data set [7] is MGC-803. In words: Induction of cell cycle arrest in human MGC-803 cells assessed as cells at G0/G1 phase at 15 uM incubated for 12 hrs by PI staining based flow cytometry (reference value: 57.9%). It counts as functional.
Data set [8] concerns PC-3. Put plainly: Induction of cell cycle arrest in human PC-3 cells assessed as cells at G2/M phase at 7.5 uM incubated for 36 hrs by PI staining based flow cytometry (reference value: 21.3%). It counts as functional.
The test system of data set [9] is MGC-803. Put plainly: Inhibition of cell proliferation in human MGC-803 cells incubated for 72 hrs by MTT assay. It counts as functional, cell-based. The following applies: MGC-803, 72 h.
For data set [10], the system named is MGC-803. In words: Induction of cell cycle arrest in human MGC-803 cells assessed as cells at S phase at 15 uM incubated for 36 hrs by PI staining based flow cytometry (reference value: 18.2%). It counts as functional.
Data set [11] deals with PC-3. Put plainly: Inhibition of cell proliferation in human PC-3 cells at 2 to 50 uM by MTT assay. The data set is classed as functional, cell-based. The settings on record: dose 2-50 µM, time 24-72 hrs, TDE = time-dependent effect.
The test system of data set [12] is MGC-803. Put plainly: Downregulation of SKP2 protein level in human MGC-803 cells incubated for 48 hrs by Western blotting analysis. The data set is classed as functional, cell-based. The following applies: dose 5-15 µM.
Data set [13] has as its system PC-3. Put plainly: Inhibition of colony formation in human PC-3 cells incubated for 10 days by crystal violet staining based inverted microscopic analysis. The data set is classed as functional, cell-based. The following applies: dose 1-3 µM, time 10.0 day.
The test system of data set [14] is MGC-803. Put plainly: Inhibition of colony formation in human MGC-803 cells at 3 uM incubated for 10 days by crystal violet staining based inverted microscopic analysis. The following applies: time 10.0 day. It counts as functional, cell-based.
Data set [15] concerns PC-3. Put plainly: Induction of cell cycle arrest in human PC-3 cells assessed as cells at G2/M phase at 15 uM incubated for 12 hrs by PI staining based flow cytometry (reference value: 21.4%). The data set is classed as functional.
The nature of data set [16]: Toxicity against NOD-SCID mouse assessed as change in spleen morphology at 25 to 50 mg/kg, IG administered for 21 days by H and E staining based assay. The following applies: in vivo, po, 504 h, dose 25-50 mg/kg, time 21 day. It counts as organism-based.
Data set [17] can be described thus: Cmax in Sprague-Dawley rat at 50 mg/kg, po measured upto 24 hrs by LC/MS-MS analysis. The data set is classed as ADME, organism-based. The following applies: in vivo.

Cyclin-dependent kinases regulatory subunit 1/S-phase kinase-associated protein 2 (Homo sapiens), sequence (P61024 2-79 limits assumed): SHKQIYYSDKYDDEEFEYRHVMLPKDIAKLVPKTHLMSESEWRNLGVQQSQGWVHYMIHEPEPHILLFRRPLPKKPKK
Cyclin-dependent kinases regulatory subunit 1/S-phase kinase-associated protein 2 (Homo sapiens), sequence (Q13309 whole entry partner): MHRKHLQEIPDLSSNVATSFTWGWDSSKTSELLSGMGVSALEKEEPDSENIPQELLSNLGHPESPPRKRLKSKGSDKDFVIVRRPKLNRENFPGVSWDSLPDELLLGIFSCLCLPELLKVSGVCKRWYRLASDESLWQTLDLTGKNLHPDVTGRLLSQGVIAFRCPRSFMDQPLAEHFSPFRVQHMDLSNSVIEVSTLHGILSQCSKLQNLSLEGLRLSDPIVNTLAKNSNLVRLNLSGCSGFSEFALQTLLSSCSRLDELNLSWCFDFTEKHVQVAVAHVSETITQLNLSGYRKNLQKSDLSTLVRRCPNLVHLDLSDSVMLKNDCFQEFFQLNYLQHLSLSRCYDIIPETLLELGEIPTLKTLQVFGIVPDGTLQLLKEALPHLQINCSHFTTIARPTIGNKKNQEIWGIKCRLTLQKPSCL
Cyclin-dependent kinases regulatory subunit 1/S-phase kinase-associated protein 2, sequence (P61024 whole entry): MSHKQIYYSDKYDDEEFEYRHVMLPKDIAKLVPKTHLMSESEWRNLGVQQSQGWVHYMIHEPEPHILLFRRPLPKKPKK
Cyclin-dependent kinases regulatory subunit 1/S-phase kinase-associated protein 2, sequence (Q13309 whole entry): as the sequence (Q13309 whole entry partner) above

Regarding `COc1ccc(-c2cc(C)nc3nc(SCc4ccc(Br)cc4)nn23)c(OC)c1`, the inhibition in [1] was 73.7%; in the data set on PC-3 [11] it was “Tde”; with PC-3 [13] it was “Dose-Dependent Effect”. Also, the Activity result with MGC-803 [2] was “Tde”; with PC-3 [3] it was 20.3%; in the data set on PC-3 [6] it was 30.1%; in the data set with MGC-803 [7], 44%; in the data set on PC-3 [8] it was 21.9%; with MGC-803 [10], 44.3%. The Activity entry in the data set with MGC-803 [12] is “Dose-Dependent Effect”; in the data set with PC-3 [15], 18.5%; in data set [16], “Non-Toxic”. For the same molecule, the IC50 in data set [4] is 4.86 µM; in the data set with MGC-803 [9] it was 10.8 µM. This molecule yielded a CL in [5] of 24 mL/min/kg. For the same molecule, the inhibition result in the data set on MGC-803 [14] is “Active”. The molecule also showed a Cmax in data set [17] of 168 ng/mL.
